This note sets out measurements from patent US20080269326A1, “Use of 1-Phenyl-3-Dimethylamino-propane Compounds for Treating Neuropathic Pain” (GRUENENTHAL GmbH, priority 2007, published 2008).

The test system of assay [1] is cold allodynia in Bennett animals. The experiment in a line: Bennett model (chronic constriction injury), cold allodynia on 4° C. cold metal plate. It counts as in vivo, rat. The following applies: for ED50: Rattus norvegicus. As to the method:
The effectiveness in treating neuropathic pain was investigated in the Bennett model (chronic constriction injury; Bennett and Xie, 1988, Pain 33: 87-107).
(§1) Sprague-Dawley rats weighing 140-160 g are provided with four loose ligatures of the right sciatic nerve under nembutal narcosis. The animals develop a hypersensitivity in the paw innervated by the damaged nerve, which after a healing phase of one week is quantified over about four weeks by means of a 4° C. cold metal plate (cold allodynia). The animals are observed for two minutes on this plate and the number of retractive movements of the damaged paw are measured. The effect of the substance is determined with reference to the base value before application of the substance, at four different times over a period of one hour(15, 30, 45 and 60 minutes after application) and the resultant area under the curve (AUD) as well as the inhibition of cold allodynia at the individual measurement points is expressed in percent effect with reference to the vehicle control (AUD) and to the initial value (individual measurement points). The cohort size is n=10.

Assay [2] deals with tactile allodynia in Chung animals. As to the kind of experiment: Chung model (spinal nerve ligature), tactile allodynia, electronic von Frey. The following applies: Rattus norvegicus, ip, 0.5 h; rats, i.p., 30 minutes after administration. The class given is in vivo. Here is the method:
Spinal nerve ligatures according to Kim & Chung (1992 Pain 50, 355-363) were applied to the left L5/L6 spinal nerves of male Spraque-Dawley rats. Four to six days after the operation the tactile threshold baseline (withdrawal threshold) was measured on the ipsilateral and contralateral rear paw by an electronic von Frey anaesthesiometer (IITC Life Science, USA). After the test and measurement of the baseline, morphine, gabapentin and some of the aforementioned compounds used according to the invention were administered. The tactile withdrawal thresholds were measured 30 minutes after the administration. The results are expressed as ED50 and % maximal possible effect (% MPE) on the ipsilateral side, in which the baseline is taken as 0% and the withdrawal threshold of a control group is taken as 100% MPE.

Assay [3] deals with cold allodynia in morphine-tolerant Bennett animals. The experiment in a line: Bennett model cold allodynia in morphine-tolerant animals. The class given is in vivo, rat. As to the method:
as §1
The underlying question is the action of a test substance having a presumably opioid action mechanism in patients who are tolerant or treatment-resistant to morphine. […] The action of test substances in naive (non-morphine-tolerant) animals and morphine-tolerant animals is compared in Table 4. […] Morphine [10 mg/kg i.p.], Compound 9 [10 and 21.5 mg/kg i.p.], Compound 10 [0.46 and 1 mg/kg i.p.], Compound 4 [21.5 mg/kg i.p.] and Compound 11 [21.5 mg/kg i.p.] were tested analogously to Example 1.

Assay [4] relates to neuropathic pain. The experiment in a line: Tests of substances together with naloxone in treating neuropathic pain. It counts as in vivo.
The test system of assay [5] is mechanical hyperalgesia in diabetic animals. The experiment in a line: Streptozotocin diabetic neuropathy, mechanical hyperalgesia (Randall and Sellito). It counts as in vivo, rat. The following applies: diabetic rats; for ED50: Rattus norvegicus, ip, i.p., read-out: Mechanical hyperalgesia ED50 (95% confidence region). As to the method: Male Sprague-Dawley rats weighing 160-180 g received an intra-peritoneal injection of streptozotocin (75 mg/kg body weight) dissolved in pH 4.6 citrate buffer. One week later diabetic animals were identified by measuring the blood glucose level, and those with a blood glucose level of ≧17 mM were included in the study. Three and four weeks after administration of streptozotocin the mechanical reaction threshold was measured in diabetic animals by the method of Randall and Sellito (1957 Arch. Int. Pharmacody. […]:409-419) before (pre-test) and at various times after administration of the test substance or vehicle (post-test). […] The maximum pressure exerted on the rear paw was 250 g. The end point of the mechanical reaction threshold in grams was determined based on the reaction of the animal (withdrawal of the rear paw, vocalisation or evasive reaction). The size of the cohort in the individual dose stages was n=10. The maximum possible response in percent (% MPE=% of maximum possible effect) was calculated according to the formula:
% MPE=(post-test−pre-test)/(250−pre-test)×100.
ED50 values (dose at which 50% maximum inhibition occurred) were determined by regression analysis from the % MPE values at the time of the maximum effect.

As a reminder, the ED50 is the midpoint of the dose-response relation. For `CC[C@](O)(c1cccc(OC)c1)[C@H](C)CN(C)C` (racemic) [Compound 1, (2RS,3RS)-1-dimethylamino-3-(3-methoxyphenyl)-2-methylpentan-3-ol], the ED50 in assay [1] (ip, rats) came to 11.1 mg/kg; in assay [2], 10.1 mg/kg.
As to `C[C@H](CN(C)C)[C@@](C)(O)c1cccc(O)c1` (racemic) [Compound 5, (1RS,2RS)-3-(3-dimethylamino-1-hydroxy-1,2-dimethylpropyl)-phenol], in assay [1] (ip, rats), it took a dose of 15 mg/kg to reach the 50% effect level (ED50).
In the case of `CC[C@](O)(c1cccc(C(F)F)c1)[C@H](C)CN(C)C` (racemic) [Compound 8, (2RS,3RS)-3-(difluoromethylphenyl)-1-dimethylamino-2-methylpentan-3-ol], the “Cold allodynia ED50” value in assay [1] (rats, i.p.) turned out to be 17.1 mg/kg.
`CC[C@@](O)(c1cccc(OC)c1)[C@@H](C)CN(C)C` [Compound 2, (2S,3S)-1-dimethylamino-3-(3-methoxyphenyl)-2-methylpentan-3-ol] returned an ED50 in assay [1] (ip, rats) of 26 mg/kg.
The compound `CC[C@](O)(c1cccc(OC)c1)[C@H](C)CN(C)C` [Compound 3, (2R,3R)-1-dimethylamino-3-(3-methoxyphenyl)-2-methylpentan-3-ol] registered an ED50 in assay [1] (ip, rats) of 9.2 mg/kg.
As for `C[C@@H](CN(C)C)[C@](C)(O)c1cccc(O)c1` [Compound 6, (1S,2S)-3-(3-dimethylamino-1-hydroxy-1,2-dimethylpropyl)phenol], the ED50 in assay [1] (ip, rats) turned out to be 32.6 mg/kg; in assay [2], 4.65 mg/kg.
On to `C[C@H](CN(C)C)[C@@](C)(O)c1cccc(O)c1` [Compound 7, (1R,2R)-3-(3-dimethylamino-1-hydroxy-1,2-dimethylpropyl)phenol], for which it took a dose of 11.1 mg/kg to reach the 50% effect level in assay [1] (ip, rats) (ED50).
On to `CC[C@H](c1cccc(O)c1)[C@H](C)CN(C)C` [Compound 10, (1S,2S)-3-(3-dimethylamino-1-ethyl-2-methylpropyl)phenol], for which the entries for the “Cold allodynia (% AUD) Naïve animals” value in assay [1] (0.46 mg/kg i.p.), in assay [1] (1 mg/kg i.p.) and in assay [1] (2.15 mg/kg i.p.) were 29.0 % AUD, 42.7 % AUD and 59.2 % AUD, respectively. The ED50 worked out at 1.2 mg/kg in assay [1] (ip, rats) and 1.5 mg/kg in assay [2]. The “Cold allodynia (% AUD) Morphine-tolerant animals” value is recorded as 22.9 % AUD in assay [3] (0.46 mg/kg i.p.), 39.9 % AUD in assay [3] (1 mg/kg i.p.) and 13.0 % AUD in assay [3] (2.15 mg/kg i.p.). Moreover, in assay [4], the “effectiveness in treating neuropathic pain with naloxone” value is listed as “effective”.
In the case of `CC(CN(C)C)=C(C)c1cccc(O)c1` [Compound 14, 3-(3-dimethylamino-1,2-dimethylpropenyl)-phenol], in assay [1] (ip, rats), it took a dose of 3.6 mg/kg to reach the 50% effect level (ED50).
In the case of `NCC1(CC(=O)O)CCCCC1` [Gabapentin, reference compound], the ED50 in assay [1] (po, rats) came to 214 mg/kg; in assay [2], 92.6 mg/kg; in assay [5], 225 mg/kg. Further, in assay [5] (464 mg/kg i.p.), the “Mechanical hyperalgesia Maximum effect in % MPE” value was 80% (464 mg/kg) % MPE.
Consider `CN1CC[C@]23c4c5ccc(O)c4O[C@H]2[C@@H](O)C=C[C@H]3[C@H]1C5` [Morphine, reference compound], for which the “Cold allodynia (% AUD) Naïve animals” value in assay [1] (10 mg/kg i.p.) came out at 78.6 % AUD. Moreover, the ED50 in assay [1] (ip, rats) stood at 7.1 mg/kg; in assay [2] it was 4.6 mg/kg; in assay [5], 3 mg/kg. The “Mechanical hyperalgesia Maximum effect in % MPE” value in assay [5] (10 mg/kg i.p.) is 89% (10 mg/kg) % MPE. In assay [3] (10 mg/kg i.p.), the “Cold allodynia (% AUD) Morphine-tolerant animals” value is listed as −22.0 % AUD. Also, the “anti-allodynic action (cold allodynia) in morphine-tolerant animals” value in assay [3] (i.p.) is recorded as “no longer exhibits any effect”. Also, in assay [4], the “effectiveness in treating neuropathic pain with naloxone” value is “effective”.
As for `COc1cccc(C2(O)CCCCC2CN(C)C)c1` (stereo not drawn) [Tramadol], the ED50 in assay [5] was determined as 9.2 mg/kg. Also, the “Mechanical hyperalgesia Maximum effect in % MPE” value in assay [5] (21.5 mg/kg i.p.) was 86% (21.5 mg/kg) % MPE.
